Source: patent US10676508B2, “DEPDC1-derived peptide and vaccine containing same” (OncoTherapy Science, Inc., priority 2015, dated 2020)

Key:
[1] = test system: COS7 cells transfected with DEPDC1 and HLA-A*1101; test: Specific CTL activity against target cells expressing DEPDC1 and HLA-A*1101; type: cell-based, African green monkey; details: peptide-induced CTL line
Source text: A cDNA encoding the open-reading frame of a target gene or HLA-A*1101 was amplified by PCR. The PCR-amplified product was cloned into an expression vector. Either or both of the target gene-expressing vector and the HLA-A*1101-expressing vector were transfected into COS7 cells, which is a cell line negative for the target gene and HLA, using Lipofectamine 2000 (Invitrogen) following the manufacturer's recommended protocol. Two days after transfection, the transfected cells were harvested using versene (Invitrogen), and used as the target cell for CTL activity assay (5×10^4 cells/well).
(§1) The CTL line induced with DEPDC1-A11-9-627 (SEQ ID NO: 1) was investigated for its ability to recognize target cells expressing DEPDC1 and the HLA-A*1101 molecule. COS7 cells transfected with both full-length DEPDC1 and the HLA-A*1101 gene were prepared as the target cell. COS7 cells transfected with either full-length DEPDC1 or HLA-A*1101 were prepared as the control.

peptide-pulsed C1R-A11 [2] = test: IFN-gamma ELISA of CTL line and CTL clones (HLA-A*1101); type: cell-based, human
Experimental: (§2) CTLs were propagated in culture using methods similar to those disclosed by Riddell et al. (Walter E A et al., N Engl J Med 1995, 333(16): 1038-44; Riddell S R et al., Nat Med 1996, 2(2): 216-23). The CTLs were co-cultured in a total of 25 ml AIM-V medium containing 5% AS (AIM-V/5% AS) and 40 ng/ml anti-CD3 antibody with two types of Mitomycin C-treated human B lymphoblastoid cell lines (5×10^6 cells). One day after beginning of the culturing, 120 IU/ml IL-2 was added to the culture. On days 5, 8 and 11, a fresh AIM-V/5% AS medium containing 30 IU/ml IL-2 was added to the culture (Tanaka H et al., Br J Cancer 2001, 84(1): 94-9; Umano Y et al., Br J Cancer 2001, 84(8): 1052-7; Uchida N et al., Clin Cancer Res 2004, 10(24): 8577-86; Suda T et al., Cancer Sci 2006, 97(5): 411-9; Watanabe T et al., Cancer Sci 2005, 96(8): 498-506).
(§3) CTLs were seeded to make 1 or 10 cells/well in 96 round-bottomed microtiter plates (Nalge Nunc International). The CTLs were co-cultured with two types of Mitomycin C-treated human B lymphoblastoid cell lines at 1×10^4 cells in a total of 150 micro-l/well AIM-V/5% AS medium with 30 ng/ml anti-CD3 antibody and 125 IU/ml IL-2. Ten days later, IL-2 at 500 IU/ml in 50 micro-1 AIM-V/5% AS medium was added to the medium. […]

peptide-pulsed C1R-A11 [3] = test: In vitro CTL induction, IFN-gamma ELISPOT assay (HLA-A*1101); type: cell-based, human; details: CTLs from HLA-A*1101-positive donors, DCs pulsed with 20 micro-g/ml peptide, day 21, versus unpulsed C1R-A11
Source text: Monocyte-derived dendritic cells (DCs) were used as the antigen-presenting cell to induce a cytotoxic T lymphocyte (CTL) response against peptides presented on human leukocyte antigens (HLAs). As described in the other sections, DCs were generated in vitro (Nakahara S et al., Cancer Res 2003, 63(14): 4112-8). Specifically, peripheral-blood mononuclear cells isolated from healthy volunteers (HLA-A*1101-positive) with the Ficoll-Paque plus solution (Pharmacia) were separated by attaching to plastic tissue culture dishes (Becton Dickinson) and concentrated as a monocyte fraction. The monocyte-concentrated population was cultured in the presence of 1000 IU/ml granulocyte macrophage colony-stimulating factor (R&D System) and 1000 IU/ml interleukin (IL)-4 (R&D System) in an AIM-V medium (Invitrogen) containing 2% heat-inactivated autologous serum (AS). After seven days of culturing, the cytokine-induced DCs were pulsed with 20 micro-g/ml each of the synthesized peptides in an AIM-V medium at 37 degrees C. for three hours in the presence of 3 micro-g/ml beta 2-microglobulin.
Next, these peptide-pulsed DCs were inactivated by X-ray irradiation (20 Gy), and mixed in a 1:20 ratio with autologous CD8^+ T cells obtained by positive selection using the CD8 Positive Isolation Kit (Dynal). These culture products were seeded in a 48-well plate (Corning). […]

[4] = test system: COS7 cells transfected with DEPDC1 and HLA-A*0101; test: Specific CTL activity against target cells expressing DEPDC1 and HLA-A*0101; type: cell-based, African green monkey; details: peptide-induced CTL clone
Source text: A cDNA encoding the open-reading frame of a target gene or HLA-A*0101 was amplified by PCR. The PCR-amplified product was cloned into an expression vector. Expression vectors were transfected using Lipofectamine 2000 (Invitrogen) following the manufacturer's recommended protocol. Two days after transfection, the transfected cells were harvested using versene (Invitrogen), and used as the stimulator cell for CTL activity assay (5×10^4 cells/well).
as §1, with “clone” for “line”, “DEPDC1-A01-11-44” for “DEPDC1-A11-9-627”, “108)” for “1)”, “HLA-A*0101” for “HLA-A*1101”

[5] = test system: peptide-pulsed C1R-A01 cells; test: IFN-gamma ELISA of CTL line and CTL clone (HLA-A*0101); type: cell-based, human
Experimental: as §2, with “AS” for “AS (AIM-V/5% AS)”, “at 5×10^6 cells.” for “(5×10^6 cells).”
as §3, with “5% AS-containing AIM-V” for “AIM-V/5% AS”, “later, 50 micro-1 of” for “later,”, “5% AS-containing AIM-V” for “50 micro-1 AIM-V/5% AS”

[6] = test system: peptide-pulsed C1R-A01 cells; test: In vitro CTL induction, IFN-gamma ELISPOT assay (HLA-A*0101); type: cell-based, human; details: CTLs from HLA-A*0101-positive donors, DCs pulsed with 20 micro-g/ml peptide, day 21, versus unpulsed C1R-A01
Source text: Monocyte-derived dendritic cells (DCs) were used as the antigen-presenting cell to induce a cytotoxic T lymphocyte (CTL) response against peptides presented on human leukocyte antigens (HLAs). As described in the other sections, DCs were generated in vitro (Nakahara S et al., Cancer Res 2003, 63(14): 4112-8). Specifically, peripheral-blood mononuclear cells isolated from healthy volunteers (HLA-A*0101-positive) with the Ficoll-Paque plus solution (Pharmacia) were separated by attaching to plastic tissue culture dishes (Becton Dickinson) and concentrated as a monocyte fraction. The monocyte-concentrated population was cultured in the presence of 1000 IU/ml granulocyte macrophage colony-stimulating factor (R&D System) and 1000 IU/ml interleukin (IL)-4 (R&D System) in an AIM-V medium (Invitrogen) containing 2% heat-inactivated autologous serum (AS). After seven days of culturing, the cytokine-induced DCs were pulsed with 20 micro-g/ml each of the synthesized peptides in an AIM-V medium at 37 degrees C. for three hours in the presence of 3 micro-g/ml beta 2-microglobulin. Next, these peptide-pulsed DCs were inactivated by X-ray irradiation (20 Gy), and mixed in a 1:20 ratio with autologous CD8^+ T cells obtained by positive selection using the CD8 Positive Isolation Kit (Dynal). These culture products were seeded in a 48-well plate (Corning). Each well was made to contain 1.5×10^4 peptide-pulsed DCs, 3×10^5 CD8^+ T cells and 10 ng/ml IL-7 (R&D System) in 0.5 ml of the AIM-V/2% AS medium. Three days later, these culture products were added with a final concentration of 20 IU/ml IL-2 (CHIRON). On day 7 and day 14, T cells were further stimulated with peptide-pulsed autologous DCs. The DCs were prepared every time by the same method as above. On day 21, after the third peptide stimulation, CTL activities were examined against the peptide-pulsed C1R-A01 cells (Tanaka H et al., Br J Cancer 2001, 84(1): 94-9; Umano Y et al., Br J Cancer 2001, 84(8): 1052-7; Uchida N et al., Clin Cancer Res 2004, 10(24): 8577-86; Suda T et al., Cancer Sci 2006, 97(5): 411-9; Watanabe T et al., Cancer Sci 2005, 96(8): 498-506).
To examine specific CTL activity, an IFN-gamma ELISPOT assay and an IFN-gamma ELISA were performed. Specifically, peptide-pulsed C1R-A01 cells (1×10^4 cells/well) were prepared as the stimulator cell. The induced CTLs, i.e., CTL lines and CTL clones, were used as the responder cell. The IFN-gamma ELISPOT assay and IFN-gamma ELISA were performed according to the manufacturer's manual.

MSQNVDMPK [SEQ ID NO: 1]
CTL activity against control COS7 cells ([1]; COS7 transfected with either full-length DEPDC1 or HLA-A*1101): a significant specific CTL activity was not detected | CTL activity against COS7 cells expressing both DEPDC1 and HLA-A*1101 [1]: potent CTL activity | IFN-gamma production of CTL clones (ELISA) (peptide-pulsed C1R-A11 [2]; CTL clones by limiting dilution, peptide-pulsed C1R-A11 cells): Potent IFN-gamma production | IFN-gamma production of the CTL line (ELISA) (peptide-pulsed C1R-A11 [2]; CTL line from Well #4, peptide-pulsed versus unpulsed target cells): potent IFN-gamma production | peptide-specific CTL activity (IFN-gamma production, ELISPOT) (peptide-pulsed C1R-A11 [3]): potent IFN-gamma production

FTAGEAVDWLY (a peptide derived from DEPDC1) [SEQ ID NO: 108]
CTL activity against control COS7 cells ([4]; COS7 transfected with either full-length DEPDC1 or HLA-A*0101): a significant specific CTL activity was not detected | CTL activity against COS7 cells expressing both DEPDC1 and HLA-A*0101 [4]: potent CTL activities | IFN-gamma production of CTL clone (ELISA) ([5]; CTL clone by limiting dilution, peptide-pulsed C1R-A01 cells): Potent IFN-gamma production | IFN-gamma production of the CTL line (ELISA) ([5]; CTL line from Well #8, peptide-pulsed versus unpulsed target cells): potent IFN-gamma production | peptide-specific CTL activity (IFN-gamma production, ELISPOT) [6]: potent IFN-gamma production
